From patent US6187781A, “4-Tetrahydropyridylpyrimidine derivatives” (Taisho Pharmaceutical Co., Ltd., priority 1997, dated 2001)
Where a name gives a salt, the structure may show the parent alone.

Target: T1, CRF receptor (Rattus norvegicus, UniProt P35353)
T1 sequence (P35353 24-415): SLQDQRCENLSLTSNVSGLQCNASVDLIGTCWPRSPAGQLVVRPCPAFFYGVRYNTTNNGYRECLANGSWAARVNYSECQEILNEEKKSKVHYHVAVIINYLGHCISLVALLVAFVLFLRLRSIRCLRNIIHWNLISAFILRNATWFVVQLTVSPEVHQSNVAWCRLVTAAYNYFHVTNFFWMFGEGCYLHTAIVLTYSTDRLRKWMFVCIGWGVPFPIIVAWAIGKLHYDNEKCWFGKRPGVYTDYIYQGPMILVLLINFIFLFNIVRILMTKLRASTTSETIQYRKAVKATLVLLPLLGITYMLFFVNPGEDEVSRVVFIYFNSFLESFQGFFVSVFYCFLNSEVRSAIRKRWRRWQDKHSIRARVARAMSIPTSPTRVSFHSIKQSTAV
Assay: CRF receptor Binding Assay ([125I]-CRF, rat frontal cortical membranes)
Conditions: 125I-CRF 0.2 nM; rat frontal cortical membranes 0.3 mg-protein/ml; 25° C., 2 hours; nonspecific binding with 1 μM CRF; read-out: IC50 (concentration of the test compound which 50% inhibits the 125I-CRF binding)

Row | Structure (SMILES) | IC50
1 | CCN(c1nc(C)cc(N2CC=C(c3ccccc3)CC2)n1)c1ccc(C(C)C)cc1Br [Compound 1-01, 2-[N-(2-bromo-4-isopropylphenyl)-N-ethylamino]-4-(4-phenyl-1,2,3,6-tetrahydropyridin-1-yl)-6-methylpyrimidine hydrochloride] | 66.1 nM
2 | C#CCN(c1nc(C)cc(N2CC=C(c3cccc(F)c3)CC2)n1)c1ccc(C(C)C)cc1SC [Compound 1-08] | 89 nM
3 | CCN(c1nc(C)cc(N2CC=C(c3cccc(F)c3)CC2)n1)c1c(C)cc(C)cc1C [Compound 1-14] | 73.9 nM
4 | CCN(c1nc(C)cc(N2CC=C(c3ccc(F)cc3)CC2)n1)c1ccc(C(C)C)cc1Br [Compound 1-15] | 79.3 nM
5 | CCN(c1nc(C)cc(N2CC=C(c3ccc(F)cc3)CC2)n1)c1ccc(C(C)C)cc1SC [Compound 1-16] | 81.1 nM
6 | CCN(c1nc(C)cc(N2CC=C(c3ccc(F)cc3)CC2)n1)c1ccc(N(C)C)cc1Br [Compound 1-17] | 73.9 nM
7 | CCN(c1nc(C)cc(N2CC=C(c3ccc(F)c(F)c3)CC2)n1)c1ccc(C(C)C)cc1Br [Compound 1-20] | 49.8 nM
8 | CCN(c1nc(C)cc(N2CC=C(c3ccc(F)c(F)c3)CC2)n1)c1ccc(C(C)C)cc1SC [Compound 1-21] | 81.1 nM
9 | CCN(c1nc(C)cc(N2CC=C(c3ccc(F)c(F)c3)CC2)n1)c1ccc(N(C)C)cc1Br [Compound 1-22] | 89 nM
10 | CCN(c1nc(C)cc(N2CC=C(c3cc(F)cc(F)c3)CC2)n1)c1ccc(C(C)C)cc1Br [Compound 1-25] | 46.4 nM
11 | C#CCN(c1nc(C)cc(N2CC=C(c3cccc(Cl)c3)CC2)n1)c1ccc(C(C)C)cc1Br [Compound 1-31] | 96.2 nM
12 | CCN(c1nc(C)cc(N2CC=C(c3cccc(Cl)c3)CC2)n1)c1ccc(N(C)C)cc1Br [Compound 1-33] | 55.9 nM
13 | C#CCN(c1nc(C)cc(N2CC=C(c3cccc(Cl)c3)CC2)n1)c1ccc(C(C)C)cc1SC [Compound 1-36] | 51.5 nM
14 | CCN(c1nc(C)cc(N2CC=C(c3ccc(Cl)cc3)CC2)n1)c1ccc(C2CCCC2)cc1SC [Compound 1-54] | 65.8 nM
15 | CCN(c1nc(C)cc(N2CC=C(c3ccc(Cl)cc3)CC2)n1)c1ccc(Br)cc1Br [Compound 1-57] | 65.8 nM
16 | CCN(c1nc(C)cc(N2CC=C(c3ccc(Cl)c(Cl)c3)CC2)n1)c1ccc(C(C)C)cc1Br [Compound 1-61] | 67.3 nM

Row | Structure (SMILES) | IC50
17 | CCN(c1nc(C)cc(N2CC=C(c3cccc(C(F)(F)F)c3)CC2)n1)c1ccc(C(C)C)cc1Br [Compound 1-66] | 46.4 nM
18 | CCN(c1nc(C)cc(N2CC=C(c3cccc(C(F)(F)F)c3)CC2)n1)c1ccc(N(C)C)cc1Br [Compound 1-67] | 61.4 nM
19 | CCN(c1nc(C)cc(N2CC=C(c3cccc(C(F)(F)F)c3)CC2)n1)c1c(C)cc(C)cc1C [Compound 1-71] | 55.9 nM
20 | CCN(c1nc(C)cc(N2CC=C(c3cccc(C)c3)CC2)n1)c1ccc(C(C)C)cc1Br [Compound 1-73] | 65.8 nM
21 | CCN(c1nc(C)cc(N2CC=C(c3ccc(C)cc3)CC2)n1)c1ccc(C(C)C)cc1Br [Compound 1-74] | 62.9 nM
22 | CCN(c1nc(C)cc(N2CC=C(c3ccc(OC)cc3)CC2)n1)c1ccc(C(C)C)cc1Br [Compound 1-77] | 82.4 nM
23 | CCN(c1nc(C)cc(N2CC=C(c3cccs3)CC2)n1)c1ccc(C(C)C)cc1Br [Compound 1-78, 2-[N-(2-bromo-4-isopropylphenyl)-N-ethylamino]-4-[4-(thiophen-2-yl)-1,2,3,6-tetrahydropyridin-1-yl]-6-methylpyrimidine] | 52.2 nM
24 | CCN(c1nc(C)cc(N2CCC=C(c3ccccc3)C2)n1)c1ccc(C(C)C)cc1Br [Compound 2-01, 2-[N-(2-bromo-4-isopropylphenyl)-N-ethylamino]-4-(5-phenyl-1,2,3,6-tetrahydropyridin-1-yl)-6-methylpyrimidine hydrochloride] | 89 nM
25 | CCN(c1nc(C)cc(N2CCC=C(c3cccc(F)c3)C2)n1)c1ccc(C(C)C)cc1Br [Compound 2-02] | 96.2 nM
26 | CCN(c1nc(C)cc(N2CCC=C(c3cccc(F)c3)C2)n1)c1ccc(C(C)C)cc1SC [Compound 2-03] | 82.3 nM
27 | CCN(c1nc(C)cc(N2CCC=C(c3ccc(F)cc3)C2)n1)c1ccc(C(C)C)cc1Br [Compound 2-04] | 82.3 nM
28 | CCN(c1nc(C)cc(N2CCC=C(c3ccc(F)cc3)C2)n1)c1ccc(N(C)C)cc1Br [Compound 2-06] | 96.2 nM
29 | CCN(c1nc(C)cc(N2CCC=C(c3cccc(Cl)c3)C2)n1)c1ccc(C(C)C)cc1SC [Compound 2-09] | 97.7 nM
30 | CCN(c1nc(C)cc(N2CCC=C(c3cc(F)cc(F)c3)C2)n1)c1ccc(C(C)C)cc1SC [Compound 2-13] | 82.3 nM
31 | CCN(c1nc(C)cc(N2CCC=C(c3cccc(C)c3)C2)n1)c1ccc(C(C)C)cc1SC [Compound 2-18] | 70.4 nM
32 | CCN(c1nc(C)cc(N2CCC=C(c3ccc(C)cc3)C2)n1)c1ccc(C(C)C)cc1SC [Compound 2-19] | 70.4 nM

Now from value to compound:

Row | IC50 | Structure (SMILES)
33 | 22.1 nM | CCN(c1nc(C)cc(N2CC=C(c3cccc(F)c3)CC2)n1)c1ccc(C(C)C)cc1Br [Compound 1-02]
34 | 32.2 nM | C#CCN(c1nc(C)cc(N2CC=C(c3cccc(F)c3)CC2)n1)c1ccc(C(C)C)cc1Br [Compound 1-03]
35 | 27.6 nM | CCN(c1nc(C)cc(N2CC=C(c3cccc(F)c3)CC2)n1)c1ccc(C(C)C)cc1I [Compound 1-05]
36 | 10.5 nM | CCN(c1nc(C)cc(N2CC=C(c3cccc(F)c3)CC2)n1)c1ccc(C(C)C)cc1SC [Compound 1-06]
37 | 38.5 nM | CCN(c1nc(C)cc(N2CC=C(c3cccc(F)c3)CC2)n1)c1ccc(N(C)C)cc1Br [Compound 1-12]
38 | 35.1 nM | CCN(c1nc(C)cc(N2CC=C(c3cc(F)cc(F)c3)CC2)n1)c1ccc(C(C)C)cc1SC [Compound 1-26]
39 | 12.6 nM | C#CCN(c1nc(C)cc(N2CC=C(c3cc(F)cc(F)c3)CC2)n1)c1ccc(C(C)C)cc1SC [Compound 1-27]
40 | 24.8 nM | CCN(c1nc(C)cc(N2CC=C(c3cccc(Cl)c3)CC2)n1)c1ccc(C(C)C)cc1Br [Compound 1-30, 2-[N-(2-bromo-4-isopropylphenyl)-N-ethylamino]-4-[4-(3-chlorophenyl)-1,2,3,6-tetrahydropyridin-1-yl]-6-methylpyrimidine hydrochloride]
41 | 20.1 nM | CCN(c1nc(C)cc(N2CC=C(c3cccc(Cl)c3)CC2)n1)c1ccc(C(C)C)cc1SC [Compound 1-34]
42 | 38.9 nM | CCN(c1nc(C)cc(N2CC=C(c3ccc(Cl)cc3)CC2)n1)c1ccc(C(C)C)cc1Br [Compound 1-41]
43 | 31.3 nM | C#CCN(c1nc(C)cc(N2CC=C(c3ccc(Cl)cc3)CC2)n1)c1ccc(C(C)C)cc1Br [Compound 1-46]
44 | 21.5 nM | CCN(c1nc(C)cc(N2CC=C(c3ccc(Cl)cc3)CC2)n1)c1ccc(C(C)C)cc1SC [Compound 1-51]
45 | 45.4 nM | CCN(c1nc(C)cc(N2CC=C(c3ccc(Cl)cc3)CC2)n1)c1ccc(N(C)C)cc1Br [Compound 1-55]
46 | 32 nM | CCN(c1nc(C)cc(N2CC=C(c3ccc(Cl)c(Cl)c3)CC2)n1)c1ccc(C(C)C)cc1SC [Compound 1-62]
47 | 38.5 nM | CCN(c1nc(C)cc(N2CC=C(c3cccc(C(F)(F)F)c3)CC2)n1)c1ccc(C(C)C)cc1SC [Compound 1-68]
48 | 44.5 nM | CCN(c1nc(C)cc(N2CC=C(c3ccco3)CC2)n1)c1ccc(C(C)C)cc1Br [Compound 1-79, 2-[N-(2-bromo-4-isopropylphenyl)-N-ethylamino]-4-[4-(furan-2-yl)-1,2,3,6-tetrahydropyridin-1-yl]-6-methylpyrimidine]
49 | 27.6 nM | CCN(c1nc(C)cc(N2CCC=C(c3ccc(F)cc3)C2)n1)c1ccc(C(C)C)cc1SC [Compound 2-05]
50 | 20.2 nM | C#CCN(c1nc(C)cc(N2CCC=C(c3ccc(F)cc3)C2)n1)c1ccc(C(C)C)cc1SC [Compound 2-07]
51 | 10.8 nM | CCN(c1nc(C)cc(N2CCC=C(c3ccccc3C)C2)n1)c1ccc(C(C)C)cc1SC [Compound 2-15, 2-[N-(4-isopropyl-2-methylthiophenyl)-N-ethylamino]-4-[5-(2-methylphenyl)-1,2,3,6-tetrahydropyridin-1-yl]-6-methylpyrimidine hydrochloride]
